Test results reported in ChEMBL document CHEMBL4725496, “Escaping from Flatland: Antimalarial Activity of sp-Rich Bridged Pyrrolidine Derivatives” (ACS Med Chem Lett, 2020).

tested on: not listed separately; assay: Intrinsic clearance in rat hepatocytes at 1 uM incubated upto 90 mins measured per 10^6 cells by LC-MS/MS analysis; type: ADME, cell-based, Hepatocyte; conditions: 1.5 h, time 0-90 min

Structure (SMILES)	CLint [µL/min/1e6 cells]
O=C(NCC12CC(CN1Cc1ccccc1)C2)c1cc(Cl)cc(C(F)(F)F)c1	8

tested on: Plasmodium falciparum; assay: Antimalarial activity against chloroquine-sensitive Plasmodium falciparum 3D7 infected in human erythrocytes assessed as reduction in parasitemia incubated for 72 hrs by SYBR green dye based fluorescence assay; type: functional, organism-based; conditions: 3D7, Erythrocyte

Structure (SMILES)	IC50 [µM]
COc1ccc(NC(=O)OC(C)(C)C)c(C(=O)NCC23CC(CN2Cc2ccccc2)C3)c1	6.2
O=C(NCC12CC(CN1Cc1ccccc1)C2)c1cc(Br)cc(C(F)(F)F)c1	2.7
Cc1cc(C(=O)NCC23CC(CN2Cc2ccccc2)C3)no1	3.4
O=C(NCC12CC(CN1Cc1ccccc1)C2)c1cc(Cl)cc(C(F)(F)F)c1	1.3
O=C(Cc1cccc(C(F)(F)F)c1)NCC12CC(CN1Cc1ccccc1)C2	22
O=C(NCC12CC(CN1Cc1ccccc1)C2)c1ccc(Br)c(F)c1	10
O=C(NCC12CC(CN1Cc1ccccc1)C2)c1ccc(C(F)(F)F)cc1Cl	8.7
O=C(NCC12CC(CN1Cc1ccccc1)C2)c1ccc(Br)s1	12.7
Cc1cc2[nH]c(C(=O)NCC34CC(CN3Cc3ccccc3)C4)cc2o1	11
CSc1ccc(Cl)c(C(=O)NCC23CC(CN2Cc2ccccc2)C3)c1	18
COc1cc(C(=O)NCC23CC(CN2Cc2ccccc2)C3)ccc1Br	5.7
COc1cccc(C(=O)NCC23CC(CN2Cc2ccccc2)C3)c1C	15
CCCCCCCCCC(=O)NCC12CC(CN1Cc1ccccc1)C2	7.4
CC(C)(C)OC(=O)Nc1ccccc1C(=O)NCC12CC(CN1Cc1ccccc1)C2	7.2
O=C(NCC12CC(CN1Cc1ccccc1)C2)c1ccc(Br)c(Cl)c1	3.6
O=C(NCC12CC(CN1Cc1ccccc1)C2)c1cc(Br)cs1	22
O=C(/C=C/c1cccc(F)c1)NCC12CC(CN1Cc1ccccc1)C2	22
O=C(NCC12CC(CN1Cc1ccccc1)C2)c1cc2cc(Br)ccc2o1	3.9
O=C(NCC12CC(CN1Cc1ccccc1)C2)C1(c2ccc(Cl)cc2Cl)CC1	1.1
O=C(NCC12CC(CN1Cc1ccccc1)C2)c1cccc(Cl)c1	13

Further lines, results first:

IC50 [µM]	Structure (SMILES)
24	CC(C)(C)OC(=O)N[C@H](C(=O)NCC12CC(CN1Cc1ccccc1)C2)C1CCCCC1
24	O=C(Cc1ccc(Br)c(F)c1)NCC12CC(CN1Cc1ccccc1)C2
19	COc1cccc2c(C(=O)NCC34CC(CN3Cc3ccccc3)C4)c[nH]c12
19	Cc1ccc(Cl)cc1C(=O)NCC12CC(CN1Cc1ccccc1)C2
19	O=C(NCC12CC(CN1Cc1ccccc1)C2)c1ccc(-n2cccn2)cc1Cl
17	O=C(NCC12CC(CN1Cc1ccccc1)C2)c1ccc2[nH]ccc2c1
16	COc1ccc(C(=O)NCC23CC(CN2Cc2ccccc2)C3)cc1Cl
15	Cc1ccc(-c2cc(C(=O)NCC34CC(CN3Cc3ccccc3)C4)[nH]n2)o1
15	O=C(NCC12CC(CN1Cc1ccccc1)C2)c1coc2ccccc12
14	Cc1nn(-c2ccccc2)nc1C(=O)NCC12CC(CN1Cc1ccccc1)C2
14	O=C(NCC12CC(CN1Cc1ccccc1)C2)c1ccc2ccccc2c1
13	O=C(CCCC1CCCCC1)NCC12CC(CN1Cc1ccccc1)C2
13	O=C(/C=C/c1ccc(F)cc1)NCC12CC(CN1Cc1ccccc1)C2
12.7	O=C(NCC12CC(CN1Cc1ccccc1)C2)c1ccc(OC(F)(F)F)cc1
12	O=C(NCC12CC(CN1Cc1ccccc1)C2)c1ccc(F)c(Br)c1
12	O=C(NCC12CC(CN1Cc1ccccc1)C2)c1cc(F)c(Cl)c(F)c1
11	O=C(Cc1ccc(Cl)c(Cl)c1)NCC12CC(CN1Cc1ccccc1)C2
11	O=C(/C=C/c1ccccc1F)NCC12CC(CN1Cc1ccccc1)C2
9.6	COc1ccc(C2(C(=O)NCC34CC(CN3Cc3ccccc3)C4)CCCC2)cc1
9.4	O=C(NCC12CC(CN1Cc1ccccc1)C2)c1ccc(-c2ccco2)cc1
9.4	O=C(NCC12CC(CN1Cc1ccccc1)C2)c1cccc(OC(F)(F)F)c1

IC50 [µM]	Structure (SMILES)
9.4	Cc1cc(C(=O)NCC23CC(CN2Cc2ccccc2)C3)ccc1Br
9	O=C(NCC12CC(CN1Cc1ccccc1)C2)c1ccc2cccc(Br)c2n1
8.9	O=C(NCC12CC(CN1Cc1ccccc1)C2)c1cc(F)cc(C(F)(F)F)c1
8.8	O=C(NCC12CC(CN1Cc1ccccc1)C2)c1ccc(Br)cc1Cl
8.5	O=C(NCC12CC(CN1Cc1ccccc1)C2)c1ccc(F)c(Cl)c1
8.5	C=Cc1ccc(C(=O)NCC23CC(CN2Cc2ccccc2)C3)cc1
7.1	Cn1ccc2ccc(C(=O)NCC34CC(CN3Cc3ccccc3)C4)cc21
6.2	O=C(NCC12CC(CN1Cc1ccccc1)C2)C1(c2ccc(Cl)cc2)CCC1
6.2	O=C(NCC12CC(CN1Cc1ccccc1)C2)c1ccc(OCc2ccccc2)cc1
5.8	O=C(/C=C/c1ccccc1Cl)NCC12CC(CN1Cc1ccccc1)C2
5.5	O=C(NCC12CC(CN1Cc1ccccc1)C2)c1ccc2[nH]nc(Br)c2c1
5.2	O=C(NCC12CC(CN1Cc1ccccc1)C2)c1ccc(Cl)c(Br)c1
5.1	O=C(NCC12CC(CN1Cc1ccccc1)C2)c1c[nH]c2c(Cl)cccc12
5.1	O=C(NCC12CC(CN1Cc1ccccc1)C2)c1ccc(Cl)c(Cl)c1
4.5	O=C(NCC12CC(CN1Cc1ccccc1)C2)C1CC1c1cc(Cl)cc(Cl)c1 (configuration not stated)
3.7	O=C(NCC12CC(CN1Cc1ccccc1)C2)c1cc(Br)c(Br)s1
3.6	COc1ccc2cc(C(=O)NCC34CC(CN3Cc3ccccc3)C4)ccc2c1
3.3	O=C(NCC12CC(CN1Cc1ccccc1)C2)c1ccc(Cl)c(C(F)(F)F)c1
2.6	CC(C)(C)c1cc(C(=O)NCC23CC(CN2Cc2ccccc2)C3)cc(C(C)(C)C)c1
1.6	O=C(NCC12CC(CN1Cc1ccccc1)C2)c1cc2c(Br)cccc2[nH]1

tested on: Plasmodium falciparum; assay: Antimalarial activity against […] Plasmodium falciparum 3D7 by LDH assay; type: functional, organism-based; conditions: not given

Structure (SMILES)	IC50 [µM]
O=C(NCC12CC(CN1Cc1ccccc1)C2)c1cc(Cl)cc(C(F)(F)F)c1	4.3

tested on: Plasmodium falciparum; assay: Antimalarial activity against chloroquine-sensitive Plasmodium falciparum 3D7 infected in human erythrocytes assessed as reduction in parasitemia at 10 uM incubated for 72 hrs by SYBR green dye based fluorescence assay relative to control; type: functional; conditions: 3D7, Erythrocyte

Structure (SMILES)	inhibition at 10 µM [%]
O=C(NCC12CC(CN1Cc1ccccc1)C2)c1cccc(Cl)c1Cl	-8.2
O=C(NCC12CC(CN1Cc1ccccc1)C2)c1ccc(Cl)cc1	38
O=C(Cc1ccc(F)c(Br)c1)NCC12CC(CN1Cc1ccccc1)C2	40
O=C(NCC12CC(CN1Cc1ccccc1)C2)c1cccc(Br)c1	35
O=C(NCC12CC(CN1Cc1ccccc1)C2)c1ccccc1	-20
O=C(Cc1cc(F)ccc1F)NCC12CC(CN1Cc1ccccc1)C2	-8.2
Cc1cccc(C(=O)NCC23CC(CN2Cc2ccccc2)C3)c1	7.6
O=C(NCC12CC(CN1Cc1ccccc1)C2)c1ccccc1Cl	-7.9
O=C(NCC12CC(CN1Cc1ccccc1)C2)c1cc(F)ccc1F	67

tested on: not listed separately; assay: Intrinsic clearance in human liver microsome at 1 uM measured upto 60 mins by LC-MS/MS analysis; type: ADME; conditions: microsomes, 1 h

Structure (SMILES)	CLint [µL/min/mg]
O=C(NCC12CC(CN1Cc1ccccc1)C2)c1cc(Cl)cc(C(F)(F)F)c1	27

tested on: Plasmodium falciparum; assay: Antimalarial activity against multi-drug-resistant Plasmodium falciparum Dd2 by LDH assay; type: functional, organism-based; conditions: not given

Structure (SMILES)	IC50 [µM]
O=C(NCC12CC(CN1Cc1ccccc1)C2)c1cc(Cl)cc(C(F)(F)F)c1	5.4

tested on: HepG2; assay: Cytotoxicity against human HepG2 cells incubated for 72 hrs by Cell Titer Glo assay; type: cell-based; conditions: HepG2, 72 h

Structure (SMILES)	IC50 [µM]
O=C(NCC12CC(CN1Cc1ccccc1)C2)c1cc(Cl)cc(C(F)(F)F)c1	> 17

tested on: not listed separately; assay: Kinetic solubility of compound in PBS buffer measured after 2 hrs under shaking condition by UV spectroscopic analysis; type: physicochemical; conditions: read-out: Kinetic_solubility

Structure (SMILES)	solubility kinetic at 2 h [µM]
O=C(NCC12CC(CN1Cc1ccccc1)C2)c1cc(Cl)cc(C(F)(F)F)c1	> 200

tested on: not listed separately; assay: 1-Octanol/phosphate buffered-saline distribution coefficient, logD of compound in pH 7.4 at 75 uM measured after 2 hrs under shaking condition by LC-MS analysis; type: physicochemical; conditions: not given

Structure (SMILES)	logD at 2 h, 75 µM
O=C(NCC12CC(CN1Cc1ccccc1)C2)c1cc(Cl)cc(C(F)(F)F)c1	3.2
